Data from patent US10485772B2, “Compositions for modulating cancer stem cells and uses therefor” (University of Canberra, priority 2014, dated 2019).

Tested on: CD44^high/CD24^low CSC-like subpopulation of PMA-stimulated MCF-7 cells (MCF-IM model)
Assay: FACS analysis of CD44high/CD24low CSC-like subpopulation in MCF-IM model
Assay type: cell-based, human
Conditions: MCF-IM model; for CD44 high CD24 low-CSC-like subpopulation by FACS: bisindolylmaleimide-I 100 nm and 1 μM prior to PMA for 60 hrs
Method: Cells from each well/flask were harvested by means of trypsin treatment followed by two washes with PBS. Washed cells then re-suspended in an antibody cocktail consisting anti-CD44-APC, anti-CD24-PE antibodies (details in Table 5) and Hoechst 33258 dye (final dilution of 1:1000) (Invitrogen, Carlsbad, Calif.) in 1% FCS-PBS solution. Cells re-suspended in antibody cocktail were incubated for 20 minutes at 4° C. Cells were next washed twice with PBS and re-suspended in 1% FCS-PBS solution (volume based on cell number) and kept on ice until analyzed by FACS. Forward scatter (FSC) and side scatter parameters were selected with FITC fluorochrome excited by 488 nm argonion laser, PE fluorochrome excited by 488 nm and Hoechst fluorochrome excited by 350 nm helium-cadmium UV laser.
Flow Cytometry data was produced using either BD FACS LSR Flow Cytometer (Becton Dickinson Biosciences) or BD FACS Aria™ II Flow Cytometer (Becton Dickinson Biosciences) and analyzed using the data acquisition software CellQuest Pro (Becton Dickinson Biosciences) and FlowJo (Tree Star Inc., Ashland, Oreg.) software at the MCRF facility, JCSMR, ANU, Canberra, Australia. Single colour controls were used to set compensation parameters. Isotype controls were used for all corresponding primary antibodies in each experiment.
The FACS gating strategy used in this thesis is adopted and modified from the pioneer breast cancer stem cell publications (Al-Hajj et al., 2003) which sorted cells based on the CD44^high and CD24^low expression. […] To confirm that anti-CD44-APC and anti-CD24-PE antibodies were specific, isotype control antibodies were used. The isotype (negative controls) used for anti-CD24-PE was PE Mouse-Anti-human IgG2aK and for anti-CD44-APC was APC-Mouse-Anti-human IgG2bK. First, all the cells were stained with Hoechst 33258 to monitor cell viability. In addition cells were stained with varying concentrations of either APC or PE isotypes controls.
The adherent human mammary adenocarcinoma MCF-7 and MDA-MB-231 cells were cultured in low glucose DMEM (Gibco) and both supplemented with 10% FCS, 2 mM L-glutamine and 0.1% PSN antibiotics. Cells were stimulated with 0.65 ng/ml of phorbol 12-myristate 13-acetate (PMA) (Sigma-Aldrich) or 20 ng/ml of TGF-β (R&D systems) for the times indicated. For Bisindolylmaleimide-I (Calbiochem) or PKC-θ peptide inhibitor (Calbiochem) studies, cells were pre-treated with 1 μM or 30 μM of inhibitor respectively for 1 h prior to stimulation in MCF-7 cells. In case of MDA-MB-231, cells were treated with 4 μM or 30 μM Bisindolylmaleimide-I or PKC-θ peptide inhibitor respectively.
To separate CSC from non-CSC (NCSC), florescence activated cell sorting (FACS) was performed on single-cell suspensions that were stained with anti-CD44-APC (559942, BD Biosciences) and anti-CD24-PE antibodies (555428, BD Biosciences) along with Hoechst 33258 to monitor cell viability. As used throughout this work, CSC are defined by minority CD44^high/CD24^low, whereas NCSC are defined by rest of the cell populations.
The adherent human mammary adenocarcinoma cell lines MCF-7 were cultured in low glucose DMEM (Gibco) and supplemented with 10% FCS, 2 mM L-glutamine, and 0.1% PSN antibiotics. Cells were stimulated with 0.65 ng/ml of phorbol 12-myristate 13-acetate (PMA) (Sigma-Aldrich) for 60 hours. FACS was performed on single-cell suspensions stained with anti-CD44-APC (559942, BD Biosciences) and anti-CD24-PE antibodies (555428, BD Biosciences), along with Hoechst 33258 (561908, BD Biosciences) to monitor cell viability as previously detailed (Zafar et al., Chromatinized PKC-theta directly regulates inducible genes in epithelial to mesenchymal transition and breast cancer stem cells. Molecular and Cellular Biology, 2014, 34:16 2961-2980). […]

Row | Structure (SMILES) | CD44 high CD24 low-CSC-like subpopulation (CSC formation) by FACS (Go6976 1 μM prior to PMA for 60 hrs) | CD44 high CD24 low-CSC-like subpopulation by FACS | CD44 high CD24 low-CSC-like subpopulation by FACS (listed as Broad spectrum PKC pathway inhibitor)
1 | Cn1c2ccccc2c2c3c(c4c5ccccc5n(CCC#N)c4c21)CNC3=O [Go6976] | did not prevent PMA-induced EMT-like morphological changes or CSC formation |  | 
2 | CN(C)CCCn1cc(C2=C(c3c[nH]c4ccccc34)C(=O)NC2=O)c2ccccc21 [bisindolylmaleimide-I] |  | only very high concentration of bisindolylmaleimide-I but not Go 6976 inhibits CD44 high CD24 low-CSC-like subpopulation | inhibition of EMT and CSC formation
